Results as given in patent US6986881B1, “Identification of compounds that modify transcriptional responses to hypoxia” (Dana-Farber Cancer Institute, Inc., priority 1999, dated 2006).
Each block holds one molecule with its values, some of them ahead of it. No end group written: not given here.

How the values were obtained:
[1] = test system: Hep3B cells, Epo-luciferase reporter; test: Epo-luciferase hypoxia-inducible reporter assay; format: cell-based; conditions: overproduction of polypeptide; 1% oxygen 18 hours
Description: FIG. 2A is a graph showing the results of luciferase and β-galactosidase assays, in which Hep3B cells were cotransfected with an Epo-luciferase reporter (100 ng), pCMV-LacZ (100 ng), and the indicated expression plasmids (300 ng). Cells were subsequently exposed to either ambient (Normoxia, stippled bars) or 1% (Hypoxia, solid bars) oxygen for 18 hours prior to assay. The results are expressed as corrected relative light units (RLU, mean of three independent transfections ±S.D.).
(§1) Reporter assays. Luciferase and β-galactosidase assays were performed as previously described (Bhattacharya et al., Genes Dev. 13:64–75, 1999). In all cases, luciferase activity was corrected for β-galactosidase activity as an internal control for transfection efficiency and global changes in transcriptional activity. Results are expressed as corrected relative light units (RLU). For each reporter experiment, at least two independent experiments were performed.
(§2) Hypoxia. Hypoxia was achieved by incubating cells in a humidified environment at 37° C. in a Cellstar three gas incubator (Harris) maintained at 10% CO2 and 1% O2. Accurate O2 and CO2 regulation was periodically verified with a Fryrite gas analyzer (Bacharach).

[2] = biological target: T1, GST-CH1 (amino acids 302–443 of p300) (Homo sapiens, UniProt Q09472); test: In vitro protein binding assay of IVT Gal4-fused HIF-1α fragments to GST-CH1; conditions: Gal4 fusion, translated in vitro
T1 construct: made in house; host or cells: bacteria
T1 sequence (Q09472 302-443): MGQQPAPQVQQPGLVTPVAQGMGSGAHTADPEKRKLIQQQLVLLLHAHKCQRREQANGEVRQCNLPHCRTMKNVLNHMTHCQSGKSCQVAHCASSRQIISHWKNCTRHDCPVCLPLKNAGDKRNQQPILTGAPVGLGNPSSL
Excerpt: One fifth of the total IVT product used for each binding assay is indicated (Input), along with the amount bound by GST-CH1 (Bound).
The detailed structural requirements for p300/CBP binding to HIF-1α were mapped by in vitro assays utilizing a series of GST-fused deletion mutants centered around the CH1 domain of p300, the primary HIF-1α interacting unit of that protein (Arany et al., Proc. Natl. Acad. Sci. U.S.A. 93:12969–12973, 1996; Kallio et al., EMBO J. 17:6573–6586, 1998). These mutant fusion proteins were assayed for binding to full length, iii vitro translated HIF-1α a zinc-dependent process (FIG. 1B). […] To map the minimal p300-binding domain of HIF-1α, a series of Gal4-fused truncation mutants of the C-terminus were generated. These Gal4 fusion proteins were translated in vitro and probed for their ability to bind to GST-CH1 (amino acids 302–443).
In vitro translation and in vitro protein binding assays. Except where noted, all reagents were from Sigma. In vitro transcription/translation (IVT) was performed in the presence of ^35S-methionine (NEN) using T3 or T7 polymerase coupled with rabbit reticulocyte lysates (TNT, Promega) according to the manufacturer's instructions. GST fusion proteins were produced in, and purified from, bacteria, and binding of IVT proteins was performed as previously described (Grossman et al., Mol. Cell. 2:405–415, 1998). […]

RAR = test: Gal4-luciferase reporter, p300/CBP dependent transactivation (Gal4-RAR); format: cell-based; conditions: TAD-C polypeptide overexpression, Hep3B cells
Description: (§3) FIG. 2B is a graph showing the effect of TAD-C expression on p300/CBP dependent transactivation. Hep3B cells were cotransfected with the indicated thioredoxin-constrained fusion protein expression plasmids (300 ng), the indicated Gal4-fusion proteins (20 ng), Gal4-luciferase reporter (100 ng), and pCMV-LacZ (50 ng). Where indicated, cells were exposed to hypoxia for 18 hours. The results are expressed as corrected RLU (mean of three independent transfections ±S.D.).
as §1

SREBP2 = test: Gal4-luciferase reporter, p300/CBP dependent transactivation (Gal4-SREBP2); format: cell-based; conditions: TAD-C polypeptide overexpression, Hep3B cells
Description: as §3, §1

SRC-1 = test: Gal4-luciferase reporter, p300/CBP dependent transactivation (Gal4-SRC1); format: cell-based; conditions: TAD-C polypeptide overexpression, Hep3B cells
Description: as §3, §1

STAT2 = test: Gal4-luciferase reporter, p300/CBP dependent transactivation (Gal4-STAT2); format: cell-based; conditions: TAD-C polypeptide overexpression, Hep3B cells
Description: as §3, §1

VEGF mRNA in HepG2 cells = test: Ribonuclease protection assay for VEGF mRNA; format: cell-based; conditions: HepG2, retrovirus MOI 10, both normoxic and hypoxic conditions
Description: In this assay, HepG2 cells were infected at an MOI of 10 with retroviruses encoding Gal4 alone or Gal4 fused with wild type or mutant (MUT) TAD-C polypeptide. Cells were exposed to either ambient or 1% (Hypoxia) oxygen for 18 hours prior to preparation of total RNA.
To facilitate expression of the relevant TAD-C and mutant polypeptides, VSV-G pseudotyped retroviruses were engineered to express Gal14 carrier protein alone or Gal4 fused to either wild type or mutant TAD-C polypeptide. HepG2 cells were infected with these retroviruses at a multiplicity of infection (MOI) of 10, exposed to either normal or hypoxic conditions, and VEGF mRNA levels were determined by a ribonuclease protection assay. Equivalent expression of Gal4 and the Gal4 fused polypeptides was regularly achieved in this and related experiments (for example, see FIG. 3A, inset). […] The overall abundance of HIF-1α under hypoxic conditions was not altered by introduction of TAD-C.
Hypoxia. Hypoxia was achieved by incubating cells in a humidified environment at 37° C. in a Cellstar three gas incubator (Harris) maintained at 10% CO2 and 1% O2. […]
Immunoblot, ribonzuclease protection, and cell death assays. […] Cell death was measured by staining with anti-Annexin V antibody (Pharmingen) and 7-amino-actinomycin D (Pharmingen), and analyzed by flow cytometry according to the manufacturer's instructions.

HIF-1α = test: Immunoblot for HIF-1α abundance; format: cell-based; conditions: hypoxic conditions
Description: (§4) Immunoblot, ribonzuclease protection, and cell death assays. Immunoblot analyses for Gal4 (RK5C1, Santa Cruz Biotechnology), p53 (DO-1, Oncogene Research), and HIF-1α (OZ15 (Arany et al., Proc. Natl. Acad. Sci. U.S.A. 93:12969–12973, 1996)) were performed using standard techniques (Ausubel et al., Eds., Current Protocols in Molecular Biology (Wiley-Interscience, New York, 1988)). Total RNA was isolated (RNeasy, Qiagen), and ribonuclease protection assays performed utilizing a multiprobe human angiogenesis kit (RiboQuant, Pharmingen) according to the manufacturer's instructions. Cell death was measured by staining with anti-Annexin V antibody (Pharmingen) and 7-amino-actinomycin D (Pharmingen), and analyzed by flow cytometry according to the manufacturer's instructions.

HepG2 cells = test: Cell death by flow cytometry (Annexin V staining and vital dye exclusion); format: cell-based; conditions: for cell survival: versus Gal4 alone
Description: FIG. 2D is a graph showing the levels of cell death in an experiment in which HepG2 cells were infected at an MOI of 5 with retrovirus encoding the indicated Gal4 fusion proteins. Cells were exposed to either ambient or 1% oxygen for 36 hours, and then assayed for cell death by flow cytometric analysis using Annexin V staining and vital dye exclusion. The results are expressed as the mean of three independent experiments ±S.E.M. The asterisk denotes statistical significance (p=0.05) in comparison to controls.
as §2
(§5) Cell culture and retroviral infection. Tumor cell lines were obtained from the ATCC, and were cultured in DMEM supplemented with 10% FBS, penicillin, streptomycin, and L-glutamine (Gibco-BRL). Cells in logarithmic growth phase were serially infected 12 hours apart with VSV-G pseudotyped pMMP-Gal4 retroviruses to achieve a final MOI of 5 or 10, depending on the experiment. […] For pBABE-puro-VP16 or pBABE-puro-HIF-VP16, cells were infected at an MOI of <1 and selected with puromycin (2 μg/ml) for 4 days. Cells were allowed to recover for 1 day and then infected at an MOI of 5 with pMMP-Gal4 retroviruses.
as §4

HCT116 cells = test: Nude mouse xenograft tumor model, HCT116; format: in vivo, nude mice; conditions: for histological examination of the injection site / tumor: HCT116, 3 weeks of growth
Excerpt: FIG. 3A is a graph showing the in vivo effect of TADC expression. HCT116 cells were infected at an MOI of 5 with retroviruses encoding Gal4 alone (circle), Gal4 fused with mutant TAD-C polypeptide (Gal4-MUT, square) or with wild type TAD-C polypeptide (triangle). A total of 4×10^6 cells were implanted subcutaneously into nude mice. The results are expressed as the mean ±S.D. of 8–10 independent tumors.
FIGS. 4A and 4B are a series of photographs showing that the in vivo effect of TAD-C expression can be rescued by a CH1-independent HIF-1α allele. Tumors arising from HCT116 cells infected with retrovirus encoding Gal4 fused with mutant (MUT) or wild type TAD-C polypeptide at an MOI of 5 were excised after 3 weeks of growth. Paraffin sections were stained with H&E or immunostained for Gal4 or CD31/PECAM. The subcutaneous tissue (SQ), tumor (Tum), and necrotic areas (Nec) are indicated.
FIG. 4C is a graph showing the results of experiments in which HCT116 cells were infected with either pBABE-puro-VP16 (VP16) or pBABE-puro-HIF-VP16 (HIFVP), and selected with puromycin. These cells were then infected with retrovirus encoding either Gal4-MUT or Gal4-TADC at an MOI of 5. A total of 6×10^6 cells were implanted in nude mice. Results are the mean of 8 independent tumors ±S.D.
as §5
Xenograft tumor model. Nude mice (Taconic) were obtained at 6–8 weeks of age and allowed to acclimate for 1 week prior to tumor implantation. Tumor cells were allowed to recover for at least 48 hours after retroviral infection prior to implantation into nude mice. The indicated number of tumor cells was injected subcutaneously and bilaterally into the flanks of mice. Tumors were measured with calipers, and tumor volume was calculated as 0.5×L×W^2. For each cell line, at least two independent experiments were performed. Where indicated, tumors were excised and fixed in 4% paraformaldehyde in phosphate buffered saline or minced and lysed in RIPA/300 buffer (50 mM Tris-HCl (pH 8.0), 300 mM NaCl, 1% NP40, 0.5% DOC, 0.1% SDS, 1 mM DTT, protease inhibitors). Immunostaining with anti-Gal4 (IKE, Santa Cruz Biotechnology) or anti-CD31 (MEC13.3, Pharmingen) was performed using the Vectastain ABC Elite system (Vector) according to the manufacturer's instructions.

MDA-MB435S cells = test: Nude mouse xenograft tumor model, MDA-MB435S; format: in vivo, nude mice; conditions: MDA-MB435S cells expressing the polypeptide, versus Gal4 alone or Gal4-mutant
Description: FIG. 3B is a graph showing results of the experiments described in reference to FIG. 3A for MDA-MB435S cells.
as §5
Xenograft tumor model. Nude mice (Taconic) were obtained at 6–8 weeks of age and allowed to acclimate for 1 week prior to tumor implantation. Tumor cells were allowed to recover for at least 48 hours after retroviral infection prior to implantation into nude mice. The indicated number of tumor cells was injected subcutaneously and bilaterally into the flanks of mice. Tumors were measured with calipers, and tumor volume was calculated as 0.5×L×W^2. For each cell line, at least two independent experiments were performed. […]

[3] = biological target: HIF-1α/p300 CH1 interaction (Homo sapiens, UniProt Q09472); conditions: cited from earlier work
Sequence of HIF-1α/p300 CH1 interaction (Q09472 whole entry): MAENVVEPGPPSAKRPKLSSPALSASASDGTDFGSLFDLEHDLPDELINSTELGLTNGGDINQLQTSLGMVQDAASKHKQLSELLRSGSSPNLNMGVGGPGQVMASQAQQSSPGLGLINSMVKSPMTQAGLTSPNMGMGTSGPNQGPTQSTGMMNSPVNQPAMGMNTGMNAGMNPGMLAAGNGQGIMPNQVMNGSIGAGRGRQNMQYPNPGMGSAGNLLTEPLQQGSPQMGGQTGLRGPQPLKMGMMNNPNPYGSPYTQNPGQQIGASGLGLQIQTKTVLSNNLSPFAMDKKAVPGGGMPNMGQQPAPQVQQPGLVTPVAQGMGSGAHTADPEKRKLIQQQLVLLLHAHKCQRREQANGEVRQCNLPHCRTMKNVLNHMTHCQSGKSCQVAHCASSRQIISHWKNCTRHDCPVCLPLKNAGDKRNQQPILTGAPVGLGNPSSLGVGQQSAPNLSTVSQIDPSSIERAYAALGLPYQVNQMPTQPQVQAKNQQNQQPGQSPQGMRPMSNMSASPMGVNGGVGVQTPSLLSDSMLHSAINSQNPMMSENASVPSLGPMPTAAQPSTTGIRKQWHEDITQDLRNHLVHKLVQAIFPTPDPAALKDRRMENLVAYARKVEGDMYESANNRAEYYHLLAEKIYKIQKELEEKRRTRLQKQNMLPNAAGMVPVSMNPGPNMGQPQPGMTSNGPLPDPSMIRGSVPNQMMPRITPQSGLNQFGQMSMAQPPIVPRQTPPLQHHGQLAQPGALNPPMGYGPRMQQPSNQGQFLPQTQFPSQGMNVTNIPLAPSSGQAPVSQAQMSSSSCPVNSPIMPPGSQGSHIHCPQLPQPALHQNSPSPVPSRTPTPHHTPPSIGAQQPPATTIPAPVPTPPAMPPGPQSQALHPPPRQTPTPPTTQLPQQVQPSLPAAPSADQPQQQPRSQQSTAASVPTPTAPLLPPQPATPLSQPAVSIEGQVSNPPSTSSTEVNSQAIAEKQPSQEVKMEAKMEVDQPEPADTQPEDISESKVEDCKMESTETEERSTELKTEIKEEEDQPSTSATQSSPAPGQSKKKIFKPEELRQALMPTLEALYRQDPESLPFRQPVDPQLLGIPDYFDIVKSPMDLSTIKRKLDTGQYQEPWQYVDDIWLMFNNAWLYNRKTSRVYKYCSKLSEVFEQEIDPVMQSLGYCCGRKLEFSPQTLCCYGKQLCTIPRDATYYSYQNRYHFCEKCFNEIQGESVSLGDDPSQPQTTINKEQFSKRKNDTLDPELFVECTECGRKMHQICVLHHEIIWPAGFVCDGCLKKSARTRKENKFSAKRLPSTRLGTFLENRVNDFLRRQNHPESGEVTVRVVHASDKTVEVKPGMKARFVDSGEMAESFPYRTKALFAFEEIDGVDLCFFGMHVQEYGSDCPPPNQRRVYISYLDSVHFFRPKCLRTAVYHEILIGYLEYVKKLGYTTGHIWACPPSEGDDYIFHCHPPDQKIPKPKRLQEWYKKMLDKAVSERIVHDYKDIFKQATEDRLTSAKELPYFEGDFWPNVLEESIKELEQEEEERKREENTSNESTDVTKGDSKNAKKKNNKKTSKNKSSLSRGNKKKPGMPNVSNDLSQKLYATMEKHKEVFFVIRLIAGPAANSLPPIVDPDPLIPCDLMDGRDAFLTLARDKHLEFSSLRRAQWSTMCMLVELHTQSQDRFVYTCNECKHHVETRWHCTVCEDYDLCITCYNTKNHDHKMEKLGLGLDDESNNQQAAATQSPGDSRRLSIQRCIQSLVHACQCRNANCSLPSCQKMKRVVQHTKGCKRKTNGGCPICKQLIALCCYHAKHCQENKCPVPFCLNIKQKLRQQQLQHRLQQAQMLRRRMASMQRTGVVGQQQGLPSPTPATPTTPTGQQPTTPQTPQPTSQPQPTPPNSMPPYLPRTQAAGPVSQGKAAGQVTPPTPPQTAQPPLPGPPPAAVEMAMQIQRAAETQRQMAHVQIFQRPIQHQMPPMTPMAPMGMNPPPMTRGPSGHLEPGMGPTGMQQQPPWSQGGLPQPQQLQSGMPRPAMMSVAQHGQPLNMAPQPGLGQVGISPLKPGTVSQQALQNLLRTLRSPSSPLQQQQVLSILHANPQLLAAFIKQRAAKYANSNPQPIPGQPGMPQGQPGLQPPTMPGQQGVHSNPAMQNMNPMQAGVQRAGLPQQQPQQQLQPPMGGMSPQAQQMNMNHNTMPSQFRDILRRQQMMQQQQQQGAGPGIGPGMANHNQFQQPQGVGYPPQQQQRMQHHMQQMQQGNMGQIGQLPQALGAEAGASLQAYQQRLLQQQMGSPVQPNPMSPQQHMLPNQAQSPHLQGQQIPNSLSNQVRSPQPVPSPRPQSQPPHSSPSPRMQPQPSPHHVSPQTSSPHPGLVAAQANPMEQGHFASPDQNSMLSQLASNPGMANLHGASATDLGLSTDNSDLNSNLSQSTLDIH

Molecule: CH1: polypeptide corresponding to the minimal HIF-1α binding domain of p300 (CH1 domain, amino acids 302–418)
- hypoxia-inducible reporter activity [1]: attenuation

- binding to GST-CH1 [2]: necessary and sufficient for binding
- effect on RAR transcriptional activity (RAR): no effect
- effect on SREBP2 transcriptional activity (SREBP2): no effect
- effect on SRC-1 transcriptional activity (SRC-1): no effect
- transcriptional activity of STAT2 (STAT2): inhibit
Molecule: TAD-C polypeptide: wild type TAD-C polypeptide (amino acids 786–826 of HIF-1α), expressed fused to Gal4 or thioredoxin-constrained
- hypoxia-inducible reporter activity [1]: attenuation
- VEGF mRNA abundance (VEGF mRNA in HepG2 cells): reproducibly diminished
- overall abundance of HIF-1α (HIF-1α): not altered
- cell death (HepG2 cells; HepG2, hypoxic conditions (1% oxygen, 36 hours), versus Gal4 alone or mutant): slightly, but significantly, increased
- cell growth (HepG2 cells; HepG2, normoxic conditions): not affected
- cell survival (HepG2 cells; HepG2, normoxic conditions): essentially the same
- histological examination of the injection site / tumor (HCT116 cells): large areas of central necrosis with a small rim of viable tumor cells
- tumor growth (HCT116 cells; HCT116, coexpression of HIF-VP16, TAD-C versus mutant polypeptide): identical tumor growth
- tumor growth (HCT116 cells; HCT116, coexpression of unfused VP16, versus mutant polypeptide): attenuated
- tumor growth (HCT116 cells; HCT116 cells expressing the polypeptide, versus Gal4 alone or Gal4-mutant): significantly and reproducibly attenuated
- tumor growth (MDA-MB435S cells): significantly and reproducibly attenuated

- binding to GST-CH1 [2]: unable to bind
Molecule: mutant TAD-C polypeptide: eight residue truncated mutant of TAD-C (amino acids 786–818 of HIF-1α), unable to bind GST-CH1 (SMDESGLPQLTSYDCEVNAPIQGSRNLLQGEEL; also: fused to Gal4; UniProt Q16665 786-818, looked up, fragment)
- hypoxia-inducible reporter activity [1]: failed to exert a dominant-negative effect
- cell survival (HepG2 cells; HepG2, normoxic conditions): essentially the same
- histological examination of the injection site / tumor (HCT116 cells): small areas of necrosis, but vast areas of viable tumor

B1: p35srj: protein with negative regulatory function on the HIF-1 pathway; binds p300/CBP, blocks HIF-1α/p300 CH1 interaction (protein, UniProt Q99967 1-270, looked up)
Cbp/p300-interacting …: MADHMMAMNHGRFPDGTNGLHHHPAHRMGMGQFPSPHHHQQQQPQHAFNALMGEHIHYGAGNMNATSGIRHAMGPGTVNGGHPPSALAPAARFNNSQFMGPPVASQGGSLPASMQLQKLNNQYFNHHPYPHNHYMPDLHPAAGHQMNGTNQHFRDCNPKHSGGSSTPGGSGGSSTPGGSGSSSGGGAGSSNSGGGSGSGNMPASVAHVPAAMLPPNVIDTDFIDEEVLMSLVIEMGLDRIKELPELWLGQNEFDFMTDFVCKQQPSRVSC
- HIF-1 transactivation [3]: inhibits
